What was measured:
CYP2B6 [1] = molecular target: T1, CYP2B6 (Homo sapiens, UniProt P20813); assay: Inhibition of recombinant CYP2B6 at 1 uM; format: ADME
T1 sequence (P20813 whole entry): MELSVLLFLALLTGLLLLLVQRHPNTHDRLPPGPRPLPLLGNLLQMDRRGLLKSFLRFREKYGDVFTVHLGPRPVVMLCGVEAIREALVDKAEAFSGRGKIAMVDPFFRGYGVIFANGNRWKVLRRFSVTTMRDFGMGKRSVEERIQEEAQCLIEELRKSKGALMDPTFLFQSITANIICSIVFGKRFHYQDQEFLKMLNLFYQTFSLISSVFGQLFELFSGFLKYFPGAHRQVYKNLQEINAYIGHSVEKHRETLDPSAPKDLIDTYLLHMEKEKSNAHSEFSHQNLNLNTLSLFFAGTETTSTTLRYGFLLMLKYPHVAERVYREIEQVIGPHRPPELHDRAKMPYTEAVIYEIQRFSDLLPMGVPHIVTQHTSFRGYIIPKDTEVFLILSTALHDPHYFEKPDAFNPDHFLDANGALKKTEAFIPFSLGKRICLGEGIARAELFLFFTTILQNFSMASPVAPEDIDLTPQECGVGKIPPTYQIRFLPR

CYP2B6 [2] = molecular target: T1, CYP2B6; assay: Inhibition of recombinant CYP2B6 at 10 uM; format: ADME
CYP2C19 = CYP2C19 (Homo sapiens, UniProt P33261); assay: Inhibition of recombinant CYP2C19 at 10 uM; format: ADME
[3] = molecular target: T2, Steroid 17-alpha-hydroxylase/17,20 lyase (Homo sapiens, UniProt P05093); assay: Inhibition of human CYP17 expressed in Escherichia coli co-expressed with NADPH-P450 reductase at 1 uM
T2 sequence (P05093 whole entry): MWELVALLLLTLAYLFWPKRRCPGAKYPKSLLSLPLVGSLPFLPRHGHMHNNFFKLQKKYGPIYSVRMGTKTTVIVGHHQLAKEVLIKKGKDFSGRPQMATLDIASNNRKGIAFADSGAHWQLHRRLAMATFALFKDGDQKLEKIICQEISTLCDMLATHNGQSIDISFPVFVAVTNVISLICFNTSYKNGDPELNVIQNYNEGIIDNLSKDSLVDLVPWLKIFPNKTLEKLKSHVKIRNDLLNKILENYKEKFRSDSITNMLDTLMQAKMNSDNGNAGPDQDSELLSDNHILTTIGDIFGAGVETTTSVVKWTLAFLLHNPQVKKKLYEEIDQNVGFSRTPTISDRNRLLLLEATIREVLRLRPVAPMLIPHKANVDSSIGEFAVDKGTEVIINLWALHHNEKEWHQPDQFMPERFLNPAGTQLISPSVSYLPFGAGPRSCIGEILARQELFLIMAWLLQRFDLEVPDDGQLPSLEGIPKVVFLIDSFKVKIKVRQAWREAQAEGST

[4] = molecular target: T2, Steroid 17-alpha-hydroxylase/17,20 lyase; assay: Inhibition of human CYP17 expressed in Escherichia coli co-expressed with NADPH-P450 reductase at 0.2 uM
[5] = molecular target: T2, Steroid 17-alpha-hydroxylase/17,20 lyase; assay: Inhibition of human CYP17 expressed in Escherichia coli co-expressed with NADPH-P450 reductase at 2 uM
CYP3A4 [6] = molecular target: T3, CYP3A4 (Homo sapiens, UniProt P08684); assay: Inhibition of recombinant CYP3A4 at 1 uM; format: ADME
[7] = Cmax in Wistar rat at 50 mg/kg, po; format: ADME, organism-based; design: dose 50 mg/kg, route oral; details: in vivo
[8] = Terminal half life in Wistar rat plasma at 50 mg/kg, po; format: ADME, organism-based; design: dose 50 mg/kg, route oral
[9] = Total body clearance in Wistar rat at 50 mg/kg, po; format: ADME, organism-based; design: dose 50 mg/kg, route oral; details: in vivo
CYP2D6 [10] = molecular target: T4, CYP2D6 (Homo sapiens, UniProt P10635); assay: Inhibition of recombinant CYP2D6 at 10 uM; format: ADME
[11] = molecular target: T5, Steroid 17-alpha-hydroxylase/17,20 lyase (Rattus norvegicus, UniProt P11715); assay: Inhibition of Sprague-Dawley rat testicular CYP17
T5 sequence (P11715 whole entry): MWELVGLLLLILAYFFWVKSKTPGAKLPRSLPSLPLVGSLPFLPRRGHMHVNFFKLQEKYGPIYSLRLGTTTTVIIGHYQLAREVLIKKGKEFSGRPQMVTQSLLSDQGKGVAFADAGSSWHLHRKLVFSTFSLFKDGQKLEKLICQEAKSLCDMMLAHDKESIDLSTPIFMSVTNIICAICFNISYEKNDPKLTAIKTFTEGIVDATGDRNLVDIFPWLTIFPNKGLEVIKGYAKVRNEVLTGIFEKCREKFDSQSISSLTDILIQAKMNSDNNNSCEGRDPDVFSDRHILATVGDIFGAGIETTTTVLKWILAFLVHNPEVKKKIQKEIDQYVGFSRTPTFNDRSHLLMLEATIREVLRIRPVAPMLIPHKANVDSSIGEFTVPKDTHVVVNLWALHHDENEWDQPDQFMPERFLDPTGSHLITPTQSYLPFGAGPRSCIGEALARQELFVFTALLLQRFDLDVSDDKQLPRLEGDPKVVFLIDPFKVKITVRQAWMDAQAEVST

[12] = Tmax in Wistar rat at 50 mg/kg, po; format: ADME, organism-based; design: dose 50 mg/kg, route oral; details: in vivo
[13] = AUC (0 to infinity) in Wistar rat at 50 mg/kg, po; format: ADME, organism-based; design: time infinity, dose 50 mg/kg, route oral; details: plasma
CYP3A4 [14] = molecular target: T3, CYP3A4; assay: Inhibition of recombinant CYP3A4 at 10 uM; format: ADME
CYP2D6 [15] = molecular target: T4, CYP2D6; assay: Inhibition of recombinant CYP2D6 at 1 uM; format: ADME
[16] = molecular target: T2, Steroid 17-alpha-hydroxylase/17,20 lyase; assay: Inhibition of human CYP17 expressed in Escherichia coli co-expressed with NADPH-P450 reductase

T3 sequence (P08684 whole entry): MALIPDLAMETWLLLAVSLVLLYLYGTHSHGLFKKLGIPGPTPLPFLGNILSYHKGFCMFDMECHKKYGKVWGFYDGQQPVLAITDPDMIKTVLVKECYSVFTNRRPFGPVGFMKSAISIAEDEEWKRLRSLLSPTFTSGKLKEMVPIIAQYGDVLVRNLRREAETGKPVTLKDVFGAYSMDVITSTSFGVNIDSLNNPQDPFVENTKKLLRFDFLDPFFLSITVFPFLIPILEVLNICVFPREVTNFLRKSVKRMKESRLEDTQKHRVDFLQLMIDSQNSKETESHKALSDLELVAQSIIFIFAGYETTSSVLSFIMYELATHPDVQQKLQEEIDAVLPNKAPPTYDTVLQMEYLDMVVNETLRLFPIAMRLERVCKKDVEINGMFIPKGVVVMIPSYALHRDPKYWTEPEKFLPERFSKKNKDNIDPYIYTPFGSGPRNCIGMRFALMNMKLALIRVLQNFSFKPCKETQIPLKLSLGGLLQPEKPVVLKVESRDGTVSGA
CYP2C19, sequence (P33261 whole entry): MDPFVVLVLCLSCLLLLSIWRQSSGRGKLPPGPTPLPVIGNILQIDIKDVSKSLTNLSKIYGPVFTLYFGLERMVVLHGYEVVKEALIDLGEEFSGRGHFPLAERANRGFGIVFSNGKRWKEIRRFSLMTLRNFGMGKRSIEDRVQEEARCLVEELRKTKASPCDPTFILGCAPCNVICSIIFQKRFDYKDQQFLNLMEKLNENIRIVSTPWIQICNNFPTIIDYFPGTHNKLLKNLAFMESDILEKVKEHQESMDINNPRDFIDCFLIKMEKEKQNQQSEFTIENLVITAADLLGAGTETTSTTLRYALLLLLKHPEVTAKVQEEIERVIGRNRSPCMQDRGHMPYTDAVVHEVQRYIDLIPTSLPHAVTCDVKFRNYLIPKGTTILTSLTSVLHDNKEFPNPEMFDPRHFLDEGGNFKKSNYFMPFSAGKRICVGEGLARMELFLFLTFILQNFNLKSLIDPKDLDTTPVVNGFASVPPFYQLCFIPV
T4 sequence (P10635 whole entry): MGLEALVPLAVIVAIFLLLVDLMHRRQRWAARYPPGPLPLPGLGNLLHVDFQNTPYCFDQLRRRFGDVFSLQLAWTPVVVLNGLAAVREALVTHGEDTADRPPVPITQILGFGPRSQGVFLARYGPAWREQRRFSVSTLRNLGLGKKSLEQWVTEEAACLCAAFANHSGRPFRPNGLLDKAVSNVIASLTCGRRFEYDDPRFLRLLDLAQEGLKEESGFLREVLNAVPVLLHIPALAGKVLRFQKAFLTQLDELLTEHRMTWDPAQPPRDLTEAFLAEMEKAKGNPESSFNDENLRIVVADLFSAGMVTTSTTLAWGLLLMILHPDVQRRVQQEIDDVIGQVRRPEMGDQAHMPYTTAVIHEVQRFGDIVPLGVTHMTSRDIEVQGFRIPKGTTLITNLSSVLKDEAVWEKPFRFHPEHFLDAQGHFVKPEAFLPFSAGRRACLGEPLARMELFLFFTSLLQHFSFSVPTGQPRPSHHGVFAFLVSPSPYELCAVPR

Which results are given for `CC(=O)N1CCN(c2ccc(OCC3COC(Cn4ccnc4)(c4ccc(Cl)cc4Cl)O3)cc2)CC1` (centres undefined) [KETOCONAZOLE]?
inhibition at 1 µM (CYP2B6 [1]): 11%; inhibition at 10 µM (CYP2B6 [2]): 57%; inhibition at 10 µM (CYP2C19): 79%; inhibition at 1 µM [3]: 19%

With `COc1ccc(-c2csc(Cn3ccnc3)c2)cc1` as the compound, how does the inhibition at 0.2 µM [4] read?
Its inhibition at 0.2 µM is 0%.

What about the inhibition at 2 µM [5] of the same compound?
The inhibition at 2 µM was 13%.

For `c1cncc(-c2ccc(Cn3ccnc3)cc2)c1`, which inhibition at 0.2 µM [4] is on record?
Its inhibition at 0.2 µM is 2%.

What about the inhibition at 2 µM [5] of the same compound?
Its inhibition at 2 µM is 14%.

For `Cc1cscc1-c1ccc(Cn2ccnc2)cc1`, which inhibition at 0.2 µM [4] is on record?
Its inhibition at 0.2 µM is 0%.

And the inhibition at 2 µM [5]?
The inhibition at 2 µM was 27%.

Which results are given for `Fc1ccc(-c2ccc(Cn3ccnc3)nc2)cc1`?
inhibition at 0.2 µM [4]: 0%; inhibition at 2 µM [5]: 2%

For `C[C@]12CC[C@H](O)CC1=CC[C@@H]1[C@@H]2CC[C@]2(C)C(c3cccnc3)=CC[C@@H]12` [ABIRATERONE], which inhibition at 1 µM (CYP2B6 [1]) is on record?
Its inhibition at 1 µM is 2%.

What about the inhibition at 1 µM (CYP3A4 [6]) of the same compound?
The inhibition at 1 µM was 4%.

And the Cmax [7]?
The Cmax was 592 ng/mL.

What about the half-life [8] of the same compound?
Its half-life is 1.6 h.

What about the CL/F [9] of the same compound?
Its CL/F is 187 mL/min/kg.

And the inhibition at 10 µM (CYP2B6 [2])?
The inhibition at 10 µM was 11%.

What about the inhibition at 10 µM (CYP2D6 [10]) of the same compound?
The inhibition at 10 µM was 7%.

What about the IC50 [11] of the same compound?
The IC50 was 220 nM.

What about the Tmax [12] of the same compound?
The Tmax was 2 h.

And the AUC(0-inf) [13]?
Its AUC(0-inf) is 4020 ng·h/mL.

And the inhibition at 10 µM (CYP2C19)?
Its inhibition at 10 µM is 21%.

And the inhibition at 10 µM (CYP3A4 [14])?
The inhibition at 10 µM was 25%.

What about the inhibition at 1 µM (CYP2D6 [15]) of the same compound?
Its inhibition at 1 µM is 7%.

With `Fc1ccc(-c2ccc(Cn3ccnc3)cn2)cc1F` as the compound, how does the inhibition at 0.2 µM [4] read?
The inhibition at 0.2 µM was 0%.

What about the inhibition at 2 µM [5] of the same compound?
The inhibition at 2 µM was 0%.

For `COc1ccc(-c2csc(Cn3ccnc3)c2)cc1OC`, which inhibition at 0.2 µM [4] is on record?
The inhibition at 0.2 µM was 0%.

And the inhibition at 2 µM [5]?
The inhibition at 2 µM was 14%.

With `COc1cccc(-c2csc(Cn3ccnc3)c2)c1` as the compound, how does the inhibition at 0.2 µM [4] read?
Its inhibition at 0.2 µM is 0%.

What about the inhibition at 2 µM [5] of the same compound?
Its inhibition at 2 µM is 24%.

With `COc1ccc(-c2ccc(Cn3ccnc3)cn2)cc1OC` as the compound, how does the inhibition at 0.2 µM [4] read?
The inhibition at 0.2 µM was 1%.

What about the inhibition at 2 µM [5] of the same compound?
The inhibition at 2 µM was 2%.

Which results are given for `CCC(c1ccc(-c2cscc2C)cc1F)n1ccnc1` (centres undefined)?
inhibition at 1 µM (CYP3A4 [6]): 88%; inhibition at 0.2 µM [4]: 41%; IC50 [16]: 236 nM; inhibition at 2 µM [5]: 92%; inhibition at 10 µM (CYP3A4 [14]): 97%

With `Fc1ccc(-c2ccc(Cn3ccnc3)cc2)cn1` as the compound, how does the inhibition at 0.2 µM [4] read?
Its inhibition at 0.2 µM is 4%.

And the inhibition at 2 µM [5]?
Its inhibition at 2 µM is 13%.

For `CCC(c1ccc(-c2cscc2C)cc1)n1ccnc1` (centres undefined), which inhibition at 0.2 µM [4] is on record?
The inhibition at 0.2 µM was 27%.

What about the IC50 [16] of the same compound?
The IC50 was 584 nM.

What about the inhibition at 2 µM [5] of the same compound?
The inhibition at 2 µM was 84%.

What does the source list for `Fc1ccc(-c2csc(Cn3ccnc3)c2)cc1F`?
inhibition at 0.2 µM [4]: 7%; inhibition at 2 µM [5]: 25%

With `COc1ccccc1-c1ccc(Cn2ccnc2)cn1` as the compound, how does the inhibition at 0.2 µM [4] read?
Its inhibition at 0.2 µM is 0%.

What about the inhibition at 2 µM [5] of the same compound?
The inhibition at 2 µM was 5%.

For `Nc1cccc(-c2ccc(Cn3ccnc3)cn2)c1`, which inhibition at 0.2 µM [4] is on record?
The inhibition at 0.2 µM was 2%.

And the inhibition at 2 µM [5]?
The inhibition at 2 µM was 3%.

— ChEMBL document CHEMBL1141584, “Synthesis, biological evaluation and molecular modelling studies of methyleneimidazole substituted biaryls as inhibitors of human 17alpha-hydroxylase-17,20-lyase (CYP17). Part I: Heterocyclic modifications of the core structure” (Bioorg Med Chem, 2008)
